# Like-named read-outs stand apart in the source and are kept apart here.
# Test: Example 5: single-dose study in iron-overloaded human subjects (PK)
# Format: in vivo
# Conditions: for Tmax / AUC(0-inf) / AUC(0-t) / Cmax / half-life: human, plasma
# Experimental: Example 5 was a single-dose, escalating study in iron-overloaded subjects. Men between the ages of 18-50 years qualified to participate if they were able to voluntarily give consent and had transfusional overload requiring treatment with an iron chelator and were willing to discontinue their chelation for a period of at least 7 days prior to screening and during the study. Eligible subjects had serum ferritin levels>300 ng/mL and ≦5000 ng/mL. Subjects had blood pressure in the normal range, ECG within normal limits and tested negative for drugs of abuse. Subjects were also HIV and Hepatitis B negative and agreed to use an approved method of contraception during the study.
# The objectives of this study were to assess the safety, tolerability, and pharmacokinetics of ascending single doses of Compound 1. Additionally, dose proportionality and pharmacodynamics of Compound 1 were assessed. Four doses of Compound 1 (6, 10, 16, and 32 mg/kg), in capsule form, were evaluated in this study. Each dose level was tested in a single subject, with appropriate evaluation of safety done prior to escalating the dose. Following screening, the first subject was dosed and then confined to the clinical research unit for 24 hours to conduct safety and pharmacokinetic assessments. The subject was released from the clinic on Day 2 and returned daily for follow-up visits for 5 days post-dosing. This process was followed for each dose level.
# All 4 subjects who received a dose of Compound 1 were included in the analysis of pharmacokinetic parameters.
# [1] = single oral dose 6 mg/kg, subject 1
# [2] = single oral dose 10 mg/kg, subject 2
# [3] = single oral dose 16 mg/kg, subject 3
# [4] = single oral dose 32 mg/kg, subject 4
smiles,measurement,setting,value
"COCCOCCOCCOc1cccc(C2=N[C@@](C)(C(=O)O)CS2)c1O [Compound 1, (S)-4,5-Dihydro-2-[2-hydroxy-3-(3,6,9-trioxadecyloxy)phenyl]-4-methyl-4-thiazolecarboxylate magnesium hydroxide]","total fraction of oral dose excreted in urine over 24 hour, average",4 dose levels,39%
same,dose proportionality of Cmax and AUC,6-32 mg/kg dose range,dose-proportional
same,plasma concentrations at 24 hours post-dose,"all subjects, 6, 10, 16 and 32 mg/kg",< 1 % of Cmax
same,Tmax,"single oral dose 6 mg/kg (360 mg), subject 1, read-out: tmax",1 h
same,AUC(0-inf),[1],46300 ng·h/mL
same,AUC(0-t),[1],45900 ng·h/mL
same,Cmax,[1],14900 ng/mL
same,Tmax,"single oral dose 10 mg/kg (583 mg), subject 2, read-out: tmax",0.77 h
same,AUC(0-inf),[2],69700 ng·h/mL
same,AUC(0-t),[2],69200 ng·h/mL
same,Cmax,[2],35400 ng/mL
same,Tmax,"single oral dose 16 mg/kg (1288 mg), subject 3, read-out: tmax",1 h
same,AUC(0-inf),[3],122000 ng·h/mL
same,AUC(0-t),[3],122000 ng·h/mL
same,Cmax,[3],38500 ng/mL
same,Tmax,"single oral dose 32 mg/kg (2214.4 mg), subject 4, read-out: tmax",1 h
same,AUC(0-inf),[4],159000 ng·h/mL
same,AUC(0-t),[4],157000 ng·h/mL
same,Cmax,[4],47600 ng/mL
same,half-life,"male, oral, 6-32 mg/kg single dose, read-out: terminal half-life, range",16 to 30 h
same,half-life,"male, oral, averaged across all dose levels, read-out: mean t1/2 (converted)",23.7 h
same,Tmax,"male, oral, averaged across all dose levels, read-out: mean tmax",0.925 h
same,total fraction of oral dose excreted in urine over 24 hour,range across the 4 dose levels,28-51%
same,CL/F,[1],7.9 L/h
same,CL/F,[2],8.4 L/h
same,CL/F,[3],10.6 L/h
same,CL/F,[4],14.1 L/h

# Reference: patent publication US8993606B2, “Oral formulations for treating metal overload” (FerroKin BioSciences, Inc., priority 2011, dated 2015)
